The values below are quoted from earlier work in patent US5493006A, “Cyclic CRF analogs” (The Salk Institute for Biological Studies, priority 1993, dated 1996).

Entries after “also recorded” stand apart in the source; their conditions may differ. Ends that are not written are not given here.

Series [1] deals with secretion of ACTH and β-END-LI. The conditions noted are these: in vitro and in vivo; background statement.
For series [2] the following is noted: injected peripherally; background statement.

Regarding “oCRF: ovine corticotropin releasing factor, a 41-residue amidated peptide (SQEPPISLDLTFHLLREVLEMTKADQLAQQAHSNRKLLDIA-NH2; UniProt P01142 148-188, looked up)”, the “stimulation of ACTH and β-endorphin-like activities (β-END-Li)” value in series [1] was “stimulates the secretion of ACTH and β-endorphin; also recorded: stimulate ACTH and β-endorphin-like activities (β-END-Li) in vitro and in vivo”. Also, in series [2], the “lowering of blood pressure” value is given as “lowers blood pressure; also recorded: substantially lower blood pressure”.
For “rCRF: rat CRF, a homologous, amidated hentetracontapeptide; same formula as human CRF (SEEPPISLDLTFHLLREVLEMARAEQLAQQAHSNRKLMEII-NH2; UniProt P01143 145-185, looked up)”, the “stimulation of ACTH and β-endorphin-like activities (β-END-Li)” value in series [1] was “stimulate ACTH and β-endorphin-like activities (β-END-Li) in vitro and in vivo”. In addition, the “lowering of blood pressure” value in series [2] is reported as “substantially lower blood pressure”.
